Test results taken from patent US7405223B2, “Treating allergic and inflammatory conditions” (priority 2000, dated 2008).
Marks after values point to notes of the source that are not given here.

Assays:
[1] = log-transformed values, 7.5 mg once daily
clinical [2] = conditions: both, human, plasma, po, 5 mg
clinical [3] = conditions: human, plasma, po, 7.5 mg, Day 14, 7.5 mg once daily oral; for Cmax: mean (% CV); for half-life: t1/2, mean (% CV)
[4] = tested on: seasonal allergic rhinitis patients; assay: Double-blinded, randomized clinical trials in seasonal allergic rhinitis patients
[5] = Day 10, DL 5 mg once daily oral
[6] = steady state, Day 10, DL 5 mg once daily oral

Question: Which results are given for `Clc1ccc2c(c1)CCc1cccnc1C2=C1CCNCC1` [desloratadine]?
Answer: increase in t1/2 in elderly subjects >=65 years old compared with younger subjects (5 mg once daily for 10 days): ~30%; AUC higher in female subjects compared with male subjects [1]: 3%; Cmax higher in female subjects compared with male subjects [1]: 10%; concentration at 8 day (clinical [2]): 1.31 ng/mL; concentration at 9 day (clinical [2]): 1.33 ng/mL; Cmax (clinical [3]; female, Black women): 6.73 ng/mL; Cmax (clinical [3]; female, White women): 5.46 ng/mL; half-life (clinical [3]; female, Black women): 35.4 h; half-life (clinical [3]; female, White women): 29.9 h; Cmax (clinical [3]; male, White men): 6.05 ng/mL; half-life (clinical [3]; male, Black men): 42 h; half-life (clinical [3]; male, White men): 36 h; reduction of nasal symptoms versus placebo ([4]; 5 mg): significantly (p<0.01) more effective than placebo; total symptom scores ([4]; 5 mg once daily): significantly reduced; AM NOW total symptom score ([4]; 24 hours after dose, entire 5 mg to 20 mg dosage range): Statistically significant (p<0.05) reductions were maintained for the full 24 hour dosing interval; differences in effectiveness across subgroups defined by gender, age, or race ([4]; entire 5 mg to 20 mg dosage range): no significant differences

Question: What does the source list for `Oc1cnc2c(c1)CCc1cc(Cl)ccc1C2=C1CCNCC1` [3-OH desloratadine, 3-hydroxydesloratadine]?
Answer: t1/2, arithmetic mean [5]: 36.0 h; t1/2, harmonic mean [5]: 34.0^c hr; AUC(0-24 hr), arithmetic mean [6]: 32.3 ng·h/mL; AUC(0-24 hr), geometric mean [6]: 30.4 ng·h/mL; Cmax, arithmetic mean [6]: 1.99 ng/mL; Cmax, geometric mean [6]: 1 .87 ng/mL; Tmax, arithmetic mean [6]: 4.76 h; Tmax, median (geometric mean) [6]: 5 h
